Measured values published in patent US7528252B2, “Derivatives of triazoly-imidazopyridine useful as ligands of the adenosine A2a receptor and their use as medicaments” (Sigma-Tau Industrie Farmaceutiche Riunite S.p.A., priority 2002, dated 2009).

How the values were obtained:
[1] = literature (Ongini et al.); cited from earlier work
CD1 male mice [2] = test: Capacity of the products to induce catalepsy in mice; assay type: in vivo; conditions: 60 mg/kg, endoperitoneal, 30 minutes prior to the test
Procedure: 10 CD1 male mice were used per group. For this test, a steel bar, 10 cm long, was placed at a height of 4.5 cm above the support surface. Onto this, were placed the front legs of the animals. The presence of catalepsy was determined by measuring the time (in seconds) the animal remained in the posture placed. Later, this parameter was placed relatively, on a scale of rising values (0 to 5) through which, the degree of catalepsy determined in both control animals and in these subjected to treatment with the substances under test could be proportionately expressed.
The reference products and these in this study were administered endoperitoneally, in a volume of 10 ml/kg, 30 minutes prior to the test.
Except for CGS 21680 (reference compound) which was dissolved in 0.9% NaCl, the products in the study and the control antagonist ZM 241385 were solubilised in DMSO and then diluted in Cremofor EL and 0.9% NaCl (final concentrations: DMSO 15%, Cremofor EL 15%, NaCl 0.9%).

CD1 male mice [3] = test: Effects on spontaneous motor activity in mice; assay type: in vivo; conditions: mean ± s.e.
Procedure: For this study, type CD1 male mice (n=8) were used. The effects of the products under study and of the reference compounds were evaluated using an apparatus consisting of a Plexiglas cage (40 cm×40 cm) surrounded by a series of photocells which monitor the movements of the animals placed inside, connected a computerised system, through which, the signals are collected and later elaborated.
Tests were carried out, after endoperitoneal administration of the products. 15 minutes after treatment, the treated animals, alternating with the controls, were placed inside the cage so as to record their spontaneous movements over a total period of 45 minutes broken down into two observation intervals (15′-45′ and 45′-60′, with respect to the time after treatment).
To examine the possible effects of the compounds studied on motor activity, the following parameters were considered: horizontal activity, vertical activity: total distance.
Except for CGS 21680 (reference compound, described in EP 0 277 917, Ciba-Geigy) which was dissolved in 0.9% NaCl, the products studied were solubilised in DMSO and then diluted in Cremofor EL and 0.9% NaCl (final concentrations: DMSO 15%, Cremofor EL 15%, NaCl 0.9%.

[4] = El Yacoubi M; et al Eur. J. Pharm. 401 (2000) 63-77; cited from earlier work
[5] = 15 mg/kg endoperitoneal, interval 15′-45′ from treatment
[6] = 15 mg/kg endoperitoneal, interval 45′-60′ from treatment
[7] = 30 mg/kg endoperitoneal, interval 15′-45′ from treatment
[8] = 30 mg/kg endoperitoneal, interval 45′-60′ from treatment
[9] = 60 mg/kg endoperitoneal, interval 15′-45′ from treatment
[10] = 60 mg/kg endoperitoneal, interval 45′-60′ from treatment

Q: Which “photoisomerisation of the ethylenic bond (stability)” value [1] does the source give for CCn1c(=O)c2c(nc(/C=C/c3ccc(OC)c(OC)c3)n2C)n(CC)c1=O [KW-6002] here?
A: subject to loss of activity through photoisomerisation of the ethylenic bond

Q: With Nc1nc(NCCc2ccc(O)cc2)nc2nc(-c3ccco3)nn12 [ZM 241385, reference compound] as the compound, how does the “appearance of catalepsy in mice (FIG. 1)” value (CD1 male mice [2]) read?
A: none of them brought about the appearance of catalepsy in mice, analogous to the reference antagonist

Q: What about the Horizontal activity (CD1 male mice [3]; [5]) of the same compound?
A: 8706 ± 473

Q: What about the Total distance (CD1 male mice [3]; [5]) of the same compound?
A: 2280 ± 242

Q: And the Vertical activity (CD1 male mice [3]; [5])?
A: 680 ± 64

Q: What about the Horizontal activity (CD1 male mice [3]; [6]) of the same compound?
A: 4148 ± 241

Q: And the Total distance (CD1 male mice [3]; [6])?
A: 1022 ± 130

Q: And the Vertical activity (CD1 male mice [3]; [6])?
A: 362 ± 78

Q: What about the Horizontal activity (CD1 male mice [3]; [7]) of the same compound?
A: 7035 ± 709

Q: What about the Total distance (CD1 male mice [3]; [7]) of the same compound?
A: 1725 ± 186

Q: What about the Vertical activity (CD1 male mice [3]; [7]) of the same compound?
A: 613 ± 102

Q: And the Horizontal activity (CD1 male mice [3]; [8])?
A: 3505 ± 375

Q: And the Total distance (CD1 male mice [3]; [8])?
A: 783 ± 165

Q: And the Vertical activity (CD1 male mice [3]; [8])?
A: 282 ± 37

Q: And the Horizontal activity (CD1 male mice [3]; [9])?
A: 7790 ± 980

Q: What about the Total distance (CD1 male mice [3]; [9]) of the same compound?
A: 2250 ± 401

Q: And the Vertical activity (CD1 male mice [3]; [9])?
A: 570 ± 129

Q: And the Horizontal activity (CD1 male mice [3]; [10])?
A: 4241 ± 407

Q: And the Total distance (CD1 male mice [3]; [10])?
A: 1131 ± 158

Q: What about the Vertical activity (CD1 male mice [3]; [10]) of the same compound?
A: 264 ± 56

Q: And the bioavailability in vivo [4]?
A: very low bioavailability
